Source: patent US11351121B2, “Calcium alginate dosage formulations, and methods of making and using thereof” (Temple University—Of The Commonwealth System of Higher …, priority 2015, dated 2022)
Entries after “also recorded” stand apart in the source; their conditions may differ.

What was measured:
[1] = Drug loss during the cross-linking process; type: physicochemical; details: previous formulations (with glycerol, lactose, sucrose)
[2] = Dissolution of formulations A-K: acid stage (0.1 N HCl two hours) then buffer stage; type: physicochemical; details: for T80: buffer stage pH 7.2 phosphate buffer after 0.1 N HCl two hours; for % released in acid stage: after two hours
Procedure: (§1) A dissolution study was performed on each of the different tablets to determine their dissolution profiles. Dissolution USP apparatus II (Paddle) was initially used. […] Rotation speed was 50 RPM and the temperature was 37.0±0.5° C. The dissolution media used was 900 ml of 0.1 N hydrochloric acid in each vessel. After 2 hours the dissolution media was changed to 900 ml of standard 50 mM pH 7.2 potassium phosphate buffer. A 1 ml sample was withdrawn at each time. The samples were analyzed by HPLC.
HPLC analysis: an Agilent 1100 series HPLC with auto-sampler and dual wavelength detector was used. The mobile phase was acetonitrile to water with 0.5% formic acid (60:50 v/v).
Methods: different formulations were developed. […] The ingredients of all the formulations were mixed with deionized water at room temperature. The basket method described in chapter two was used to fabricate the tablets. 2 or 1.5 ml of the gel was dispensed into the basket as indicated.
Release profiles of the tablets were investigated in different buffer capacities and pH values. The tablets were pretreated in the acid stage for two hours before transferring them to the buffer stage.

[3] = poly(ethyloxaline)/PMAA matrix disks, 0.9% saline; cited from earlier work
[4] = Dissolution of calcium alginate tablets in different dissolution media (deionized water, EDTA, EDTA+CaCl2); type: physicochemical
Procedure: In order to investigate the role of solutes and pH of the media on the erosion process, calcium alginate tablets made with same formulation were treated in different dissolution media.
The dissolution of the drug from the Ca Alginate dosage form was dependent on two things. First the pH of the media had to be neutral or high. Second the media had to have the ability to complex with the Calcium in solution. […] The drug release at pH 7.2 in media with either EDTA or phosphate buffer was complete in 6 hours. Drug release in 0.1 N HCl was less than 5%.

[5] = Dissolution study of calcium alginate tablets, USP apparatus I (basket), 0.1 N HCl 2 hours then pH 7.2 phosphate buffer; type: physicochemical; details: after two hours
Procedure: Analysis: an Agilent 1100 series HPLC with autosampler and dual wavelength detector was used. The mobile phase was acetonitrile to water with 0.5% formic acid (60:50 v/v). The flow rate was 1.2 mL/min and the sample injection volume was 50 μL and the wavelength of detection was 214 nm. The column used was a 150 by 4.6 mm Eclipse Plus C18 column (Agilent).
as §1

[6] = cited from earlier work
[7] = Dissolution of compressed caffeine tablets (Carver press, Minipress IIBD); type: physicochemical; details: compressed tablet with alginate film coating
Procedure: Coated Tablet Results: different weight gains were tested to try to achieve the delayed release profile.
Because it was somewhat more difficult to produce tablets with similar hardness on the Minipress using the formulation used on the Carver press, lactose was added to increase the hardness of the tablets.

## O=C(O)c1ccccc1 [Benzoic acid, benzoic acid]
[1]
  benzoic acid lost during the cross-linking process: more than 30%
[2]; benzoic acid, previous formulations (with glycerol, lactose, sucrose)
  drug load released during residence time in the acid stage: more than 30%
[2]; formulation B
  T80: 6.76 h
[2]; formulation C
  released in the acid stage after two hours: about 18%
  T80: 6.4 h
[2]; formulation K
  % released in acid stage: 7%
[2]; formulation K, buffer stage
  erosion of tablets at pH 3 and pH 4: no erosion was detected
  erosion of tablets at pH 5: started to erode but at a slower rate compared to pH 7.2
[2]; formulation K, 100 mM phosphate buffer, pH 7.2
  effect of higher buffer capacity on release rate: minimum effect on the release rate
[2]; formulation K, 25 and 10 mM phosphate buffer, pH 7.2
  effect of lower buffer capacity on drug release: a slower drug release

## insulin: regular zinc insulin in a poly(ethyloxaline)/PMAA matrix (Kwon et al.)
[3]
  insulin released during the 3 days equilibrium period in saline: less than 4 % of the initial insulin load

## CC(C)Cc1ccc(C(C)C(=O)O)cc1 (stereo not drawn) [Ibuprofen, ibuprofen]
[4]; calcium alginate tablets, pH 7.2 deionized water
  release of the drug in pH 7.2 deionized water: no significant release; also recorded: no drug release
[4]; pH 7.2 media with either EDTA or phosphate buffer
  time to complete drug release: 6 h
[4]; tablets with 1 g stearic acid, 1 molar CaCl2 3 minutes, 10 mM EDTA
  drug release in 10 mM EDTA dissolution medium: Complete drug release
[4]; tablets with 1 g stearic acid, 1 molar CaCl2 3 minutes, 10 mM EDTA+30 mM CaCl2
  erosion or release in EDTA solution treated with calcium chloride: No erosion or release
[2]; formulation B
  T80: 4.8 h
[2]; formulation C
  T80: 6.71 h
[2]; formulation K
  % released in acid stage: <1%
[5]
  drug released in 0.1 N HCl media: less than 5%

## COc1ccccc1OCC(O)CO (stereo not drawn) [Guaifenesin, guaifenesin]
[2]; formulation K
  % released in acid stage: 17%
[6]
  solubility: highly soluble

## Cn1c(=O)c2c(ncn2C)n(C)c1=O [Caffeine, caffeine]
[2]; formulation K
  % released in acid stage: 18%
[7]
  caffeine release by 12 hours: 80%
  time for which caffeine is retained: up to 8 hours
